Converted amounts (≈) assume the structure as drawn. Read-outs that look alike come from different tables or passages of the source. Numbered stars: 1 amine (or outer) side, 2 acyl side, 3 side chain; on linkers, the order of the positions; unused ones are H or OH. Bridge positions count the residues as written; N and C are the ends. Side chains are listed from the residue outwards. Peptide text beside a SMILES is read from it. * marks the point of attachment. C20 diacid = O=C(O)CCCCCCCCCCCCCCCCCCC(=O)*; γGlu = O=C(O)[C@H](CCC(=O)[*:2])N[*:1]
Key:
[1] = ASSAY (III) ThT fibrillation assay for physical stability; assay type: physicochemical
How it was run: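 Physical stability scored by ThT fluorescence (444 nm excitation, 485 nm emission) tracked every 20 min during 37 °C incubation with 960 rpm shaking, ThT at 1 μM final. Values are replicate means with SD at chosen times; HPLC against pramlintide standard gives initial and post-assay soluble concentrations.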

[2] = ASSAY (IV) determination of solubility; assay type: physicochemical
How it was run: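 Samples of polypeptide, prepared from a water stock at […] and diluted 1:1 into 100 mM buffers spanning pH 3.0 to 8.0, stood 18 hours at room temperature. Polypeptide concentration was then determined by UPLC following centrifugation.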

[3] = bistrispropane buffer, pH 6.5, read-out: Solubility pH 6.5 Concentration
[4] = bistrispropane buffer, pH 7.5, read-out: Solubility pH 7.5 Concentration
[5] = bistrispropane buffer, pH 6.0, read-out: Solubility pH 6.0 Concentration
[6] = bistrispropane buffer, pH 7.0, read-out: Solubility pH 7.0 Concentration
[7] = bistrispropane buffer, pH 8.0, read-out: Solubility pH 8.0 Concentration
[8] = glycylglycine buffer, pH 3.0, read-out: Solubility pH 3.0 Concentration
[9] = glycylglycine buffer, pH 4.0, read-out: Solubility pH 4.0 Concentration
[10] = glycylglycine buffer, pH 5.0, read-out: Solubility pH 5.0 Concentration

Row | Structure (SMILES) | ThT pH 4.0 lag time (h) [1] [h] | solubility at 18 h [2, 3] [µM] | solubility at 18 h [2, 4] [µM] | solubility at 18 h [2, 5] [µM] | solubility at 18 h [2, 6] [µM] | solubility at 18 h [2, 7] [µM] | solubility at 18 h [2, 8] [µM] | solubility at 18 h [2, 9] [µM] | solubility at 18 h [2, 10] [µM]
1 | CC[C@H](C)[C@H](NC(=O)[C@H](C)NC(=O)CNC(=O)[C@H](Cc1ccccc1)NC(=O)[C@H](CC(N)=O)NC(=O)[C@@H]1CCCN1C(=O)[C@H](CO)NC(=O)[C@H](CO)NC(=O)[C@H](Cc1c[nH]cn1)NC(=O)[C@H](CCCNC(=N)N)NC(=O)[C@H](CC(C)C)NC(=O)[C@H](Cc1ccccc1)NC(=O)[C@H](Cc1c[nH]cn1)NC(=O)[C@H](C)NC(=O)[C@H](CC(C)C)NC(=O)[C@H](CCCNC(=N)N)NC(=O)[C@H](CCC(N)=O)NC(=O)[C@@H](NC(=O)[C@H](C)NC(=O)[C@@H]1CSSC[C@H](NC(=O)[C@@H](N)CCCCNC(=O)CC[C@H](NC(=O)CCCCCCCCCCCCCCCCCCC(=O)O)C(=O)O)C(=O)N[C@@H](CC(N)=O)C(=O)N[C@@H]([C@@H](C)O)C(=O)N[C@@H](C)C(=O)N[C@@H]([C@@H](C)O)C(=O)N1)[C@@H](C)O)C(=O)N1CCC[C@H]1C(=O)N[C@@H](CO)C(=O)N[C@@H](CO)C(=O)N[C@H](C(=O)N1CCC[C@H]1C(=O)N[C@H](C(=O)NCC(=O)N1CCC[C@H]1C(=O)N[C@@H](CC(N)=O)C(=O)N[C@H](C(=O)N[C@@H](Cc1ccc(O)cc1)C(N)=O)[C@@H](C)O)C(C)C)[C@@H](C)O [Example 116] (H-K([γGlu-C20 diacid])CNTATCATQRLAHFLRHSSPNFGAIPSSTPVGPNTY-NH2; disulfide 2-7) | 45 | ≥ 200 | ≥ 200 | ≥ 200 | ≥ 200 | 180 (≈ 791 µg/mL) | ≥ 200 | ≥ 200 | ≥ 200
2 | CC[C@H](C)[C@H](NC(=O)[C@H](C)NC(=O)CNC(=O)[C@H](Cc1ccccc1)NC(=O)[C@H](CC(N)=O)NC(=O)[C@@H]1CCCN1C(=O)[C@H](CO)NC(=O)[C@H](CO)NC(=O)[C@H](Cc1c[nH]cn1)NC(=O)[C@H](CCCNC(=N)N)NC(=O)[C@H](CC(C)C)NC(=O)[C@H](Cc1ccccc1)NC(=O)[C@H](CC(N)=O)NC(=O)[C@H](C)NC(=O)[C@H](CC(C)C)NC(=O)[C@H](CCCNC(=N)N)NC(=O)[C@H](CCC(N)=O)NC(=O)[C@@H](NC(=O)[C@H](C)NC(=O)[C@@H]1CSSC[C@H](NC(=O)[C@@H](N)CCCCNC(=O)CC[C@H](NC(=O)CC[C@H](NC(=O)CCCCCCCCCCCCCCCCCCC(=O)O)C(=O)O)C(=O)O)C(=O)N[C@@H](CC(N)=O)C(=O)N[C@@H]([C@@H](C)O)C(=O)N[C@@H](C)C(=O)N[C@@H]([C@@H](C)O)C(=O)N1)[C@@H](C)O)C(=O)N1CCC[C@H]1C(=O)N[C@@H](CO)C(=O)N[C@@H](CO)C(=O)N[C@H](C(=O)N1CCC[C@H]1C(=O)N[C@H](C(=O)NCC(=O)N1CCC[C@H]1C(=O)N[C@@H](CCCNC(=N)N)C(=O)N[C@H](C(=O)N[C@@H](Cc1ccc(O)cc1)C(N)=O)[C@@H](C)O)C(C)C)[C@@H](C)O [Example 119] (H-K([γGlu-γGlu-C20 diacid])CNTATCATQRLANFLRHSSPNFGAIPSSTPVGPRTY-NH2; disulfide 2-7) | 10 | 174 (≈ 791 µg/mL) | 112 (≈ 509 µg/mL) | ≥ 200 | 182 (≈ 827 µg/mL) | 32 (≈ 145 µg/mL) | 174 (≈ 791 µg/mL) | ≥ 200 | ≥ 200
3 | CC[C@H](C)[C@H](NC(=O)[C@H](C)NC(=O)CNC(=O)[C@H](Cc1ccccc1)NC(=O)[C@H](CC(N)=O)NC(=O)[C@@H]1CCCN1C(=O)[C@H](CO)NC(=O)[C@H](CO)NC(=O)[C@H](Cc1c[nH]cn1)NC(=O)[C@H](CCCNC(=N)N)NC(=O)[C@H](CC(C)C)NC(=O)[C@H](Cc1ccccc1)NC(=O)[C@H](CC(=O)O)NC(=O)[C@H](C)NC(=O)[C@H](CC(C)C)NC(=O)[C@H](CCCNC(=N)N)NC(=O)[C@H](CCC(N)=O)NC(=O)[C@@H](NC(=O)[C@H](C)NC(=O)[C@@H]1CSSC[C@H](NC(=O)[C@@H](N)CCCCNC(=O)CC[C@H](NC(=O)CCCCCCCCCCCCCCCCCCC(=O)O)C(=O)O)C(=O)N[C@@H](CC(N)=O)C(=O)N[C@@H]([C@@H](C)O)C(=O)N[C@@H](C)C(=O)N[C@@H]([C@@H](C)O)C(=O)N1)[C@@H](C)O)C(=O)N1CCC[C@H]1C(=O)N[C@@H](CO)C(=O)N[C@@H](CO)C(=O)N[C@H](C(=O)N[C@@H](CC(N)=O)C(=O)N[C@H](C(=O)NCC(=O)N1CCC[C@H]1C(=O)N[C@@H](CCC(=O)O)C(=O)N[C@H](C(=O)N[C@@H](Cc1ccc(O)cc1)C(N)=O)[C@@H](C)O)C(C)C)[C@@H](C)O [Example 123] (H-K([γGlu-C20 diacid])CNTATCATQRLADFLRHSSPNFGAIPSSTNVGPETY-NH2; disulfide 2-7; N-terminus assumed) | 30 | ≥ 200 | ≥ 200 | ≥ 200 | ≥ 200 | ≥ 200 | ≥ 200 | ≥ 200 | ≥ 200
4 | CC[C@H](C)[C@H](NC(=O)[C@H](C)NC(=O)CNC(=O)[C@H](Cc1ccccc1)NC(=O)[C@H](CC(N)=O)NC(=O)[C@@H]1CCCN1C(=O)[C@H](CO)NC(=O)[C@H](CO)NC(=O)[C@H](Cc1c[nH]cn1)NC(=O)[C@H](CCCNC(=N)N)NC(=O)[C@H](CC(C)C)NC(=O)[C@H](Cc1ccccc1)NC(=O)[C@H](CCC(=O)O)NC(=O)[C@H](C)NC(=O)[C@H](CC(C)C)NC(=O)[C@H](CCCNC(=N)N)NC(=O)[C@H](CCC(N)=O)NC(=O)[C@@H](NC(=O)[C@H](C)NC(=O)[C@@H]1CSSC[C@H](NC(=O)[C@@H](N)CCCCNC(=O)CC[C@H](NC(=O)CC[C@H](NC(=O)CCCCCCCCCCCCCCCCCCC(=O)O)C(=O)O)C(=O)O)C(=O)N[C@@H](CC(N)=O)C(=O)N[C@@H]([C@@H](C)O)C(=O)N[C@@H](C)C(=O)N[C@@H]([C@@H](C)O)C(=O)N1)[C@@H](C)O)C(=O)N1CCC[C@H]1C(=O)N[C@@H](CO)C(=O)N[C@@H](CO)C(=O)N[C@H](C(=O)N[C@@H](CC(N)=O)C(=O)N[C@H](C(=O)NCC(=O)N1CCC[C@H]1C(=O)N[C@@H](CCC(=O)O)C(=O)N[C@H](C(=O)N1CCC[C@H]1C(N)=O)[C@@H](C)O)C(C)C)[C@@H](C)O [Example 125] (H-K([γGlu-γGlu-C20 diacid])CNTATCATQRLAEFLRHSSPNFGAIPSSTNVGPETP-NH2; disulfide 2-7 (inferred); N-terminus assumed) | 23 | ≥ 200 | ≥ 200 | ≥ 200 | ≥ 200 | ≥ 200 | ≥ 200 | ≥ 200 | ≥ 200
5 | CC[C@H](C)[C@H](NC(=O)[C@H](C)NC(=O)CNC(=O)[C@H](Cc1ccccc1)NC(=O)[C@H](CC(N)=O)NC(=O)[C@@H]1CCCN1C(=O)[C@H](CO)NC(=O)[C@H](CO)NC(=O)[C@H](Cc1c[nH]cn1)NC(=O)[C@H](CCCNC(=N)N)NC(=O)[C@H](CC(C)C)NC(=O)[C@H](Cc1ccccc1)NC(=O)[C@H](CCC(=O)O)NC(=O)[C@H](C)NC(=O)[C@H](CC(C)C)NC(=O)[C@H](CCCNC(=N)N)NC(=O)[C@H](CCC(N)=O)NC(=O)[C@@H](NC(=O)[C@H](C)NC(=O)[C@@H]1CSSC[C@H](NC(=O)[C@@H](N)CCCCNC(=O)CC[C@H](NC(=O)CCCCCCCCCCCCCCCCCCC(=O)O)C(=O)O)C(=O)N[C@@H](CC(N)=O)C(=O)N[C@@H]([C@@H](C)O)C(=O)N[C@@H](C)C(=O)N[C@@H]([C@@H](C)O)C(=O)N1)[C@@H](C)O)C(=O)N1CCC[C@H]1C(=O)N[C@@H](CO)C(=O)N[C@@H](CO)C(=O)N[C@H](C(=O)N[C@@H](CC(N)=O)C(=O)N[C@H](C(=O)NCC(=O)N[C@@H](CO)C(=O)N[C@@H](Cc1c[nH]cn1)C(=O)N[C@H](C(=O)N[C@@H](Cc1ccc(O)cc1)C(N)=O)[C@@H](C)O)C(C)C)[C@@H](C)O [Example 128] (H-K([γGlu-C20 diacid])CNTATCATQRLAEFLRHSSPNFGAIPSSTNVGSHTY-NH2; disulfide 2-7 (inferred); N-terminus assumed) | 41 | ≥ 200 | ≥ 200 | ≥ 200 | ≥ 200 | ≥ 200 | ≥ 200 | ≥ 200 | ≥ 200
6 | CC[C@H](C)[C@H](NC(=O)[C@H](C)NC(=O)CNC(=O)[C@H](Cc1ccccc1)NC(=O)[C@H](CC(N)=O)NC(=O)[C@@H]1CCCN1C(=O)[C@H](CO)NC(=O)[C@H](CO)NC(=O)[C@H](Cc1c[nH]cn1)NC(=O)[C@H](CCCNC(=N)N)NC(=O)[C@H](CC(C)C)NC(=O)[C@H](Cc1ccccc1)NC(=O)[C@H](CC(=O)O)NC(=O)[C@H](C)NC(=O)[C@H](CC(C)C)NC(=O)[C@H](CCCNC(=N)N)NC(=O)[C@H](CCC(N)=O)NC(=O)[C@@H](NC(=O)[C@H](C)NC(=O)[C@@H]1CSSC[C@H](NC(=O)[C@@H](N)CCCCNC(=O)CC[C@H](NC(=O)CCCCCCCCCCCCCCCCCCC(=O)O)C(=O)O)C(=O)N[C@@H](CC(N)=O)C(=O)N[C@@H]([C@@H](C)O)C(=O)N[C@@H](C)C(=O)N[C@@H]([C@@H](C)O)C(=O)N1)[C@@H](C)O)C(=O)N1CCC[C@H]1C(=O)N[C@@H](CO)C(=O)N[C@@H](CO)C(=O)N[C@H](C(=O)N[C@@H](CC(N)=O)C(=O)N[C@H](C(=O)NCC(=O)N1CCC[C@H]1C(=O)N[C@@H](CCCNC(=N)N)C(=O)N[C@H](C(=O)N[C@@H](Cc1ccc(O)cc1)C(N)=O)[C@@H](C)O)C(C)C)[C@@H](C)O [Example 129] (H-K([γGlu-C20 diacid])CNTATCATQRLADFLRHSSPNFGAIPSSTNVGPRTY-NH2; disulfide 2-7 (inferred); N-terminus assumed) | 45 | ≥ 200 | 187 (≈ 829 µg/mL) | ≥ 200 | ≥ 200 | 102 (≈ 452 µg/mL) | ≥ 200 | ≥ 200 | ≥ 200

From patent US9023789B2, “Amylin analogs and pharmaceutical compositions thereof” (Novo Nordisk A/S, priority 2012, dated 2015)
